Several values for one entry are separate records, joined by “and”; a condition that tells them apart may be missing. Identical values can stand only once.
Assays:
S. furcifera adults = test: Y-tube olfactometer behavioral trials; assay type: in vivo, Sogatella furcifera; conditions: odorant 50 µL/L vs hexane; adults
How it was run: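 Single S. furcifera adults (2 days post-emergence, starved 0.5 h) chose between odorant (100 µL of 50 µL/L on filter paper) and hexane control in a glass Y-tube, charcoal-filtered humidified air 300 mL/min per arm, 25 ± 1 °C, 50% RH. Choice scored if insect passed half an arm and stayed >1 min within 10 min; 45 insects per compound, chi-squared test.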

SfurOBP2 = SfurOBP2 (Sogatella furcifera, UniProt V5T759); test: biochemical; assay type: binding
SfurOBP2, sequence (V5T759 entry or part of it): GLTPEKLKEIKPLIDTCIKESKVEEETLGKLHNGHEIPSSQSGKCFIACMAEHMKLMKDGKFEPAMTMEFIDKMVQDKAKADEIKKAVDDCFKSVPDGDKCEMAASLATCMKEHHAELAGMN
How it was run: (§1)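 In 50 mM Tris-HCl pH 7.4, odorants displace 1-NPN (2.0 µM) from 2.0 µM protein. Emission at 390–490 nm under 337 nm excitation is measured 2 min after competitor addition, in triplicate. Ki is obtained from IC50 and the 1-NPN dissociation constant.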

SfurOBP1 = SfurOBP1 (Sogatella furcifera, UniProt V5T8N5); test: biochemical; assay type: binding; conditions: for Fluorescence competitive binding assay, fluorescence intensity: OBP1, three replicate columns
SfurOBP1, sequence (V5T8N5 entry or part of it): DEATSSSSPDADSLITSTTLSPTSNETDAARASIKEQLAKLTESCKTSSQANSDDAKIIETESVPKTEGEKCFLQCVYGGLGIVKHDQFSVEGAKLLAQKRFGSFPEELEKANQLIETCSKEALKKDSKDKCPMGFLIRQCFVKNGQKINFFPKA
How it was run: as §1

SfurOBP11 = SfurOBP11 (Sogatella furcifera, UniProt V5T6E3); test: biochemical; assay type: binding
SfurOBP11, sequence (V5T6E3 entry or part of it): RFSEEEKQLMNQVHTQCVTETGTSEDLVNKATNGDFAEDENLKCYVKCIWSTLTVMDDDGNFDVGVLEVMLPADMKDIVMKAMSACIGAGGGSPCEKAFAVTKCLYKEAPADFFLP
How it was run: as §1

SfurOBP3 = SfurOBP3 (Sogatella furcifera, UniProt V5T818); test: biochemical; assay type: binding; conditions: for Fluorescence competitive binding assay, fluorescence intensity: OBP3, three replicate columns;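 on Fluorescence competitive binding assay, fluorescence intensity: competitor odorant at 2 to 20 µM with protein and 1-NPN both 2.0 µM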
SfurOBP3, sequence (V5T818 entry or part of it): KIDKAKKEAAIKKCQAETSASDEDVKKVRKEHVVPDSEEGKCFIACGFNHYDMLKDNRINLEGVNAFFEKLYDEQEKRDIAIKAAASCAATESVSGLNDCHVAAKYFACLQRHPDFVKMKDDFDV
How it was run: as §1
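Wherever Fluorescence competitive binding assay, fluorescence intensity is given: competitor odorant at 2 to 20 µM with protein and 1-NPN both 2.0 µM.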

## CC1=CC[C@@H](C(C)(C)O)CC1 [α-terpineol]
S. furcifera adults
  number of insects choosing hexane arm: 14
  number of insects choosing volatilies arm: 11
  number of insects failed (no choice): 15
SfurOBP2
  IC50: > 20 µM
SfurOBP2; ligand concentration 2 (unit not given), replicate column 1 of 3
  Fluorescence competitive binding assay, OBP2 (raw fluorescence reading): 18212
SfurOBP2; ligand concentration 2 (unit not given), replicate column 2 of 3
  Fluorescence competitive binding assay, OBP2 (raw fluorescence reading): 17771
SfurOBP2; ligand concentration 2 (unit not given), replicate column 3 of 3
  Fluorescence competitive binding assay, OBP2 (raw fluorescence reading): 19569
SfurOBP2; ligand concentration 4 (unit not given), replicate column 1 of 3
  Fluorescence competitive binding assay, OBP2 (raw fluorescence reading): 20390
SfurOBP2; ligand concentration 4 (unit not given), replicate column 2 of 3
  Fluorescence competitive binding assay, OBP2 (raw fluorescence reading): 18924
SfurOBP2; ligand concentration 4 (unit not given), replicate column 3 of 3
  Fluorescence competitive binding assay, OBP2 (raw fluorescence reading): 19735
SfurOBP2; ligand concentration 6 (unit not given), replicate column 1 of 3
  Fluorescence competitive binding assay, OBP2 (raw fluorescence reading): 19485
SfurOBP2; ligand concentration 6 (unit not given), replicate column 2 of 3
  Fluorescence competitive binding assay, OBP2 (raw fluorescence reading): 20387
SfurOBP2; ligand concentration 6 (unit not given), replicate column 3 of 3
  Fluorescence competitive binding assay, OBP2 (raw fluorescence reading): 20572
SfurOBP2; ligand concentration 8 (unit not given), replicate column 1 of 3
  Fluorescence competitive binding assay, OBP2 (raw fluorescence reading): 16903
SfurOBP2; ligand concentration 8 (unit not given), replicate column 2 of 3
  Fluorescence competitive binding assay, OBP2 (raw fluorescence reading): 17555
SfurOBP2; ligand concentration 8 (unit not given), replicate column 3 of 3
  Fluorescence competitive binding assay, OBP2 (raw fluorescence reading): 17959
SfurOBP2; ligand concentration 10 (unit not given), replicate column 1 of 3
  Fluorescence competitive binding assay, OBP2 (raw fluorescence reading): 16415
SfurOBP2; ligand concentration 10 (unit not given), replicate column 2 of 3
  Fluorescence competitive binding assay, OBP2 (raw fluorescence reading): 15491
SfurOBP2; ligand concentration 10 (unit not given), replicate column 3 of 3
  Fluorescence competitive binding assay, OBP2 (raw fluorescence reading): 17367
SfurOBP2; ligand concentration 12 (unit not given), replicate column 1 of 3
  Fluorescence competitive binding assay, OBP2 (raw fluorescence reading): 14309
SfurOBP2; ligand concentration 12 (unit not given), replicate column 2 of 3
  Fluorescence competitive binding assay, OBP2 (raw fluorescence reading): 15826
SfurOBP2; ligand concentration 12 (unit not given), replicate column 3 of 3
  Fluorescence competitive binding assay, OBP2 (raw fluorescence reading): 15705
SfurOBP2; ligand concentration 14 (unit not given), replicate column 1 of 3
  Fluorescence competitive binding assay, OBP2 (raw fluorescence reading): 15282
SfurOBP2; ligand concentration 14 (unit not given), replicate column 2 of 3
  Fluorescence competitive binding assay, OBP2 (raw fluorescence reading): 15181
SfurOBP2; ligand concentration 14 (unit not given), replicate column 3 of 3
  Fluorescence competitive binding assay, OBP2 (raw fluorescence reading): 14363
SfurOBP2; ligand concentration 16 (unit not given), replicate column 1 of 3
  Fluorescence competitive binding assay, OBP2 (raw fluorescence reading): 13073
SfurOBP2; ligand concentration 16 (unit not given), replicate column 2 of 3
  Fluorescence competitive binding assay, OBP2 (raw fluorescence reading): 13018
SfurOBP2; ligand concentration 16 (unit not given), replicate column 3 of 3
  Fluorescence competitive binding assay, OBP2 (raw fluorescence reading): 13539
SfurOBP2; ligand concentration 18 (unit not given), replicate column 1 of 3
  Fluorescence competitive binding assay, OBP2 (raw fluorescence reading): 15519
SfurOBP2; ligand concentration 18 (unit not given), replicate column 2 of 3
  Fluorescence competitive binding assay, OBP2 (raw fluorescence reading): 15960
SfurOBP2; ligand concentration 18 (unit not given), replicate column 3 of 3
  Fluorescence competitive binding assay, OBP2 (raw fluorescence reading): 15297
SfurOBP2; ligand concentration 20 (unit not given), replicate column 1 of 3
  Fluorescence competitive binding assay, OBP2 (raw fluorescence reading): 14913
SfurOBP2; ligand concentration 20 (unit not given), replicate column 2 of 3
  Fluorescence competitive binding assay, OBP2 (raw fluorescence reading): 14580
SfurOBP2; ligand concentration 20 (unit not given), replicate column 3 of 3
  Fluorescence competitive binding assay, OBP2 (raw fluorescence reading): 12894
SfurOBP1
  IC50: > 20 µM
SfurOBP1; ligand concentration 2 (μM)
  Fluorescence competitive binding assay, fluorescence intensity: 6377 and 6063 and 6691
SfurOBP1; ligand concentration 4 (μM)
  Fluorescence competitive binding assay, fluorescence intensity: 7679 and 7170 and 7304
SfurOBP1; ligand concentration 6 (μM)
  Fluorescence competitive binding assay, fluorescence intensity: 7149 and 7127 and 7171
SfurOBP1; ligand concentration 8 (μM)
  Fluorescence competitive binding assay, fluorescence intensity: 6956 and 7151 and 7930
SfurOBP1; ligand concentration 10 (μM)
  Fluorescence competitive binding assay, fluorescence intensity: 8380 and 7109 and 7555
SfurOBP1; ligand concentration 12 (μM)
  Fluorescence competitive binding assay, fluorescence intensity: 7012 and 7971 and 7255
SfurOBP1; ligand concentration 14 (μM)
  Fluorescence competitive binding assay, fluorescence intensity: 6581 and 7020 and 7628
SfurOBP1; ligand concentration 16 (μM)
  Fluorescence competitive binding assay, fluorescence intensity: 6623 and 7749 and 6480
SfurOBP1; ligand concentration 18 (μM)
  Fluorescence competitive binding assay, fluorescence intensity: 7107 and 7324 and 6847
SfurOBP1; ligand concentration 20 (μM)
  Fluorescence competitive binding assay, fluorescence intensity: 6572 and 7380 and 8412
SfurOBP11
  IC50: > 20 µM
SfurOBP11; ligand concentration 2, replicate 1
  Fluorescence intensity, fluorescence competitive binding assay, OBP11: 29252
SfurOBP11; ligand concentration 2, replicate 2
  Fluorescence intensity, fluorescence competitive binding assay, OBP11: 30685
SfurOBP11; ligand concentration 2, replicate 3
  Fluorescence intensity, fluorescence competitive binding assay, OBP11: 32118
SfurOBP11; ligand concentration 4, replicate 1
  Fluorescence intensity, fluorescence competitive binding assay, OBP11: 28869
SfurOBP11; ligand concentration 4, replicate 2
  Fluorescence intensity, fluorescence competitive binding assay, OBP11: 31369
SfurOBP11; ligand concentration 4, replicate 3
  Fluorescence intensity, fluorescence competitive binding assay, OBP11: 30942
SfurOBP11; ligand concentration 6, replicate 1
  Fluorescence intensity, fluorescence competitive binding assay, OBP11: 28105
SfurOBP11; ligand concentration 6, replicate 2
  Fluorescence intensity, fluorescence competitive binding assay, OBP11: 27021
SfurOBP11; ligand concentration 6, replicate 3
  Fluorescence intensity, fluorescence competitive binding assay, OBP11: 30576
SfurOBP11; ligand concentration 8, replicate 1
  Fluorescence intensity, fluorescence competitive binding assay, OBP11: 25898
SfurOBP11; ligand concentration 8, replicate 2
  Fluorescence intensity, fluorescence competitive binding assay, OBP11: 26158
SfurOBP11; ligand concentration 8, replicate 3
  Fluorescence intensity, fluorescence competitive binding assay, OBP11: 28412
SfurOBP11; ligand concentration 10, replicate 1
  Fluorescence intensity, fluorescence competitive binding assay, OBP11: 27115
SfurOBP11; ligand concentration 10, replicate 2
  Fluorescence intensity, fluorescence competitive binding assay, OBP11: 24221
SfurOBP11; ligand concentration 10, replicate 3
  Fluorescence intensity, fluorescence competitive binding assay, OBP11: 26039
SfurOBP11; ligand concentration 12, replicate 1
  Fluorescence intensity, fluorescence competitive binding assay, OBP11: 23153
SfurOBP11; ligand concentration 12, replicate 2
  Fluorescence intensity, fluorescence competitive binding assay, OBP11: 22497
SfurOBP11; ligand concentration 12, replicate 3
  Fluorescence intensity, fluorescence competitive binding assay, OBP11: 22406
SfurOBP11; ligand concentration 14, replicate 1
  Fluorescence intensity, fluorescence competitive binding assay, OBP11: 22371
SfurOBP11; ligand concentration 14, replicate 2
  Fluorescence intensity, fluorescence competitive binding assay, OBP11: 22254
SfurOBP11; ligand concentration 14, replicate 3
  Fluorescence intensity, fluorescence competitive binding assay, OBP11: 22487
SfurOBP11; ligand concentration 16, replicate 1
  Fluorescence intensity, fluorescence competitive binding assay, OBP11: 19119
SfurOBP11; ligand concentration 16, replicate 2
  Fluorescence intensity, fluorescence competitive binding assay, OBP11: 17607
SfurOBP11; ligand concentration 16, replicate 3
  Fluorescence intensity, fluorescence competitive binding assay, OBP11: 18419
SfurOBP11; ligand concentration 18, replicate 1
  Fluorescence intensity, fluorescence competitive binding assay, OBP11: 25701
SfurOBP11; ligand concentration 18, replicate 2
  Fluorescence intensity, fluorescence competitive binding assay, OBP11: 25030
SfurOBP11; ligand concentration 18, replicate 3
  Fluorescence intensity, fluorescence competitive binding assay, OBP11: 24854
SfurOBP11; ligand concentration 20, replicate 1
  Fluorescence intensity, fluorescence competitive binding assay, OBP11: 25268
SfurOBP11; ligand concentration 20, replicate 2
  Fluorescence intensity, fluorescence competitive binding assay, OBP11: 25350
SfurOBP11; ligand concentration 20, replicate 3
  Fluorescence intensity, fluorescence competitive binding assay, OBP11: 25312
SfurOBP3
  IC50: 13.6 µM
SfurOBP3; ligand concentration 2
  Fluorescence competitive binding assay, fluorescence intensity: 41927 and 42538 and 43146
SfurOBP3; ligand concentration 4
  Fluorescence competitive binding assay, fluorescence intensity: 40833 and 40011 and 41655
SfurOBP3; ligand concentration 6
  Fluorescence competitive binding assay, fluorescence intensity: 42160 and 41392 and 42949
SfurOBP3; ligand concentration 8
  Fluorescence competitive binding assay, fluorescence intensity: 37611 and 37369 and 39854
SfurOBP3; ligand concentration 10
  Fluorescence competitive binding assay, fluorescence intensity: 32220 and 32701 and 33181
SfurOBP3; ligand concentration 12
  Fluorescence competitive binding assay, fluorescence intensity: 30392 and 29567 and 30934
SfurOBP3; ligand concentration 14
  Fluorescence competitive binding assay, fluorescence intensity: 29784 and 30310 and 29247
SfurOBP3; ligand concentration 16
  Fluorescence competitive binding assay, fluorescence intensity: 24410 and 25726 and 27469
SfurOBP3; ligand concentration 18
  Fluorescence competitive binding assay, fluorescence intensity: 26293 and 25033 and 26983
SfurOBP3; ligand concentration 20
  Fluorescence competitive binding assay, fluorescence intensity: 28495 and 26490 and 25496
SfurOBP3; SfurOBP3
  binding affinity to SfurOBP3 (in words): high binding affinities
